# “Also recorded” adds a separate entry of the source.
# Key:
# rabbit eye model [1] = experiment: Pupillometry: effect of single topical ocular administration on pupillary diameter (miotic effect) in rabbit eye model; format: in vivo, Dutch Belted Rabbits
# Method: The following examples were performed to determine which active pharmaceutical agent (API), alone or in combination, could effect upon topical administration an approximate 1-2 mm decrease in pupillary diameter with a desirable (e.g., about 4 h) duration of action. Unless stated otherwise, a rabbit animal model was used for the studies. Phentolamine was used as a positive control (comparator API) and caused an approximately 1 mm decrease in the pupil at 0.5% and 1% with a duration of more than 6 hours.
# Study design: 3 Dutch Belted Rabbits (pigmented breed)/group received a single ocular administration of test articles (one drop per eye) at 3 concentrations (tested one week apart). After a 2-week rest period, combinations were tested. Ocular irritation was assessed using a modified Draize test. Intraocular pressure (IOP) was measured at baseline, 1 h, 4 h, 6 h and 24 hours. Pupillary Diameter was measured at baseline, 15 min, 1 h, 4 h and 6 h after dosing. Due to the variation in pupillary diameter and IOP between rabbits and between eyes within rabbits, the data for pupillary diameter and IOP were normalized and presented with error bars (SD). A change of 15% to 20% approximates a pupillary diameter change of 1 mm. […]
# rabbit eye model [2] = experiment: Effect of benzalkonium chloride on the miotic effect of carbachol; format: in vivo
# Description: In still further experiments, the inventors investigated the effect of benzalkonium chloride on the miotic effect of carbachol. To that end, different concentrations of BAC were employed between 0.005% and 0.02% at carbachol concentrations between 0.025% and 0.075%, and the results are shown in FIGS. 6A-6C. […] As BAK is believed to increase permeability of the respective agents across the corneal tissue, addition of BAK at concentrations up to 0.05% may advantageously increase miotic effect at otherwise identical drug concentration. Thus, BAK may enhance the miotic action of brimonidine, rivastigmine, galantamine, and carbachol, which may in turn allow for reduced drug concentrations and/or increased miotic effect without unduly extending the duration of the miotic effect.
molecule,measurement,setting,value
"Brc1c(N=C2NCCN2)ccc2nccnc12.O=C(O)C(O)C(O)C(=O)O [Brimonidine, 5-Bromo-6-(2-imidazolidinylideneamino) quinoxaline L-tartrate]",miotic effect on pupillary diameter,"rabbit eye model [1]; at doses tested, rabbit",little to no effect
same,miotic effect on pupillary diameter,"rabbit eye model [1]; doses at or below 0.1%, rabbit (FIG. 2), L-tartrate",some miotic effect; also recorded: moderate effect
same,miotic effect on pupillary diameter,"rabbit eye model [1]; higher doses tested, at or above 0.2%, rabbit (FIG. 2)",little to no effect
"Br.COc1ccc2c3c1O[C@H]1C[C@@H](O)C=C[C@@]31CCN(C)C2 [Galantamine, galantamine]",decrease in pupil,"rabbit eye model [1]; concentration of about 2%, alone, rabbit",1-2 mm
same,duration of reduction in pupillary diameter (lasted at least),"rabbit eye model [1]; high dose (2%), rabbit (FIG. 4A)",at least 1 h
Cc1ccc(N(CC2=NCCN2)c2cccc(O)c2)cc1 [Phentolamine],duration of reduction in pupillary diameter,"rabbit eye model [1]; all doses, topical, rabbit (FIG. 1)",at least 6 h
same,decrease in the pupil,"rabbit eye model [1]; at 0.5% and 1%, topical, one drop per eye, rabbit",approximately 1 mm
"CCN(C)C(=O)Oc1cccc(C(C)N(C)C)c1 (stereo not drawn) [Rivastigmine, N-ethyl-3-[1-dimethylamino)ethyl]-N-methylphenyl carbamate]",decrease in pupil,"rabbit eye model [1]; concentration of about 1%, alone, rabbit",1 mm
same,miotic effect on pupillary diameter (comparison in words),"rabbit eye model [1]; concentration of about 1%, alone, rabbit (FIG. 3A)",substantially similar to phentolamine
C[N+](C)(C)CCOC(N)=O [carbachol],duration of action (miotic effect),"rabbit eye model [1]; carbachol, even at lowest dose (about 0.075%), rabbit",2 to 4 h
same,miotic effect (potency in words),"rabbit eye model [1]; even at the lowest dose / low concentration of about 0.075%, rabbit (FIG. 5)",very potent
"N-Alkyl-N-benzyl-N,N-dimethyl-ammonium chloride [BAC]",effect of BAC on miotic effect of carbachol,"rabbit eye model [2]; BAC 0.005%, at 1 hr, higher carbachol concentration (FIG. 6A)",some effect
same,effect of BAC on miotic effect of carbachol,"rabbit eye model [2]; BAC 0.005%, carbachol 0.025%-0.075% (FIG. 6A)",minimal effect
same,effect of BAC on miotic effect of carbachol,"rabbit eye model [2]; BAC 0.01%, carbachol 0.025%-0.075% (FIG. 6B)",somewhat more pronounced
same,effect of BAC on miotic effect of carbachol,"rabbit eye model [2]; BAC at least 0.02%, carbachol 0.025%-0.075% (FIG. 6C)",significant

# Source: patent US20230301993A1, “Low-Dose Ophthalmic Compositions and Methods” (priority 2020, published 2023)
